Source: ChEMBL document CHEMBL5634150, “Design, synthesis and biological evaluation of novel dihydroquinolin-4(1H)-one derivatives as novel tubulin polymerization inhibitors” (Eur J Med Chem, 2023)
In brackets after ≈: the same amount, converted by molar mass.

Key:
[1] = Resistance index, ratio of IC50 for antiproliferative activity against human A549/Taxol cells to IC50 for antiproliferative activity against human A549 cells; assay type: functional
[2] = system: A549; test: Antiproliferative activity against human A549 cells assessed as inhibition of cell growth measured after 72 hrs by MTT assay; assay type: functional, cell-based; settings: A549, 72 h
[3] = system: A549/TR; test: Antiproliferative activity against human A549/Taxol cells assessed as inhibition of cell growth measured after 72 hrs by MTT assay; assay type: functional, cell-based
[4] = system: A549; test: Antiproliferative activity against human A549 cells assessed as inhibition of cell growth at 0.1 uM measured after 72 hrs by MTT assay relative to control; assay type: functional
[5] = system: A549; test: Antiproliferative activity against human A549 cells assessed as inhibition of cell growth at 1 uM measured after 72 hrs by MTT assay relative to control; assay type: functional
[6] = system: A549; test: Antiproliferative activity against human A549 cells assessed as inhibition of cell growth at 0.01 uM measured after 72 hrs by MTT assay relative to control; assay type: functional
[7] = system: MDA-MB-231; test: Antiproliferative activity against human MDA-MB-231 cells assessed as inhibition of cell growth measured after 72 hrs by MTT assay; assay type: functional, cell-based; settings: MDA-MB-231, 72 h
[8] = Antiproliferative activity against human HFL1 cells assessed as inhibition of cell growth measured after 72 hrs by MTT assay; assay type: toxicity, cell-based
[9] = system: K562; test: Antiproliferative activity against human K562 cells assessed as inhibition of cell growth measured after 72 hrs by MTT assay; assay type: functional, cell-based; settings: K562, 72 h
[10] = system: HepG2; test: Antiproliferative activity against human HepG2 cells assessed as inhibition of cell growth measured after 72 hrs by MTT assay; assay type: functional, cell-based; settings: HepG2, 72 h
[11] = Metabolic stability in mouse liver microsomes assessed as intrinsic clearance at 100 uM measure upto 60 mins in presence of NADPH by LC-MS/MS analysis; assay type: ADME, Microsome; settings: 1 h
[12] = Metabolic stability in mouse plasma assessed as compound remaining at 1 uM and measured at 3 hrs by LC-MS/MS analysis; assay type: ADME, cell-free; settings: read-out: Stability
[13] = Metabolic stability in mouse plasma assessed as half life at 1 uM and measured upto 3 hrs by LC-MS/MS analysis; assay type: ADME, cell-free
[14] = Metabolic stability in mouse liver microsomes assessed as half life at 100 uM measure upto 60 mins in presence of NADPH by LC-MS/MS analysis; assay type: ADME, Microsome
[15] = Aqueous solubility of the compound by HPLC analysis; assay type: physicochemical; settings: aqueous (not further specified)
[16] = system: H22; test: Antitumor activity against mouse H22 cells allografted in mouse model assessed as tumor growth inhibition at 20 mg/kg,iv administered once daily for 3 weeks relative to control; assay type: functional; settings: H22, 504 h, read-out: TGI

Structure (SMILES)	IC50 [2]	inhibition at 0.1 µM [4]	inhibition at 1 µM [5]	inhibition at 0.01 µM [6]	IC50 [7]	IC50 at 72 h [8]	IC50 [9]	IC50 [10]	also measured
CC(=O)O[C@H]1C(=O)[C@@]2(C)[C@H]([C@H](OC(=O)c3ccccc3)[C@]3(O)C[C@H](OC(=O)[C@H](O)[C@@H](NC(=O)c4ccccc4)c4ccccc4)C(C)=C1C3(C)C)[C@]1(OC(C)=O)CO[C@@H]1C[C@@H]2O [PACLITAXEL]	22 nM	–	–	–	–	–	–	–	Ratio IC50 [1]: 27.36; IC50 [3]: 602 nM
COc1cc2c(c(OC)c1OC)C(=O)CCN2c1ccccc1	–	12.3%	31.1%	6.13%	–	–	–	–	–
COc1ccc2c(c1)C(=O)CCN2c1ccc(OC)c(O)c1	–	40.2%	66.6%	32.5%	–	–	–	–	–
COc1ccc(N2CCCc3c2cc(OC)c(OC)c3OC)cc1O	276 nM	45%	81%	35%	1060 nM	2660 nM	297 nM	668 nM	–
COc1ccc(N2CCC(=O)c3cc4c(cc32)OCO4)cc1O	–	14.3%	28%	12.7%	–	–	–	–	–
COc1cc2c(c(OC)c1OC)C(=O)CCN2c1ccc2c(c1)OCO2	–	44.8%	65.3%	22.6%	–	–	–	–	–
COc1cc2c(c(OC)c1OC)C(=O)CCN2c1ccc(O)c(O)c1	–	22.9%	35%	21.9%	–	–	–	–	–
COc1cc2c(c(OC)c1OC)C(=O)CCN2c1ccc2ccn(C)c2c1	170 nM	53.4%	61%	13.2%	1140 nM	2760 nM	147 nM	648 nM	–
COc1cc2c(c(OC)c1OC)C(=O)CCN2c1ccc2cc[nH]c2c1	288 nM	38.2%	71.1%	22.4%	2890 nM	9750 nM	902 nM	2310 nM	–
COc1cc(N2CCC(=O)c3cc4c(cc32)OCO4)cc(OC)c1OC	–	29.2%	46.6%	19.9%	–	–	–	–	–
COc1cc2c(c(OC)c1OC)C(=O)CCN2c1c[nH]c2ccccc12	–	31.4%	51.7%	16.6%	–	–	–	–	–
COc1ccc(N2CCC(=O)c3c2cc(OC)c(OC)c3OC)cc1OC	–	17.6%	41%	11%	–	–	–	–	–
COc1cc2c(cc1O)N(c1cc(OC)c(OC)c(OC)c1)CCC2=O	–	45.6%	54.4%	33.5%	–	–	–	–	–
COc1cc2c(c(OC)c1OC)C(=O)CCN2c1ccc(O)cc1	–	15.1%	29.9%	9.57%	–	–	–	–	–
COc1cc2c(c(OC)c1OC)C(=O)CCN2Cc1ccccc1	–	6.72%	23.2%	8.31%	–	–	–	–	–
COc1cc2c(c(OC)c1OC)C(=O)CCN2c1cccc2c1ccn2C	63 nM	56%	74.2%	19.2%	33 nM	99 nM	7 nM	21 nM	–
COc1ccc(N2CCC(=O)c3c2cc(OC)c(OC)c3OC)cn1	–	30.4%	45.3%	18.8%	–	–	–	–	–

Structure (SMILES)	IC50 [2]	inhibition at 0.1 µM [4]	inhibition at 1 µM [5]	inhibition at 0.01 µM [6]	IC50 [7]	IC50 at 72 h [8]	IC50 [9]	IC50 [10]	also measured
COc1cc2c(c(OC)c1OC)C(=O)CCN2c1ccc2[nH]ccc2c1	305 nM	69%	72%	30.1%	912 nM	2980 nM	182 nM	855 nM	–
COc1cc2c(c(OC)c1OC)C(=O)CCN2c1cccc(O)c1	–	36.8%	50.1%	15.8%	–	–	–	–	–
COc1ccc(N2CCC(=O)c3ccccc32)cc1O	–	54.7%	58.5%	38.2%	–	–	–	–	–
COc1cc2c(c(OC)c1OC)C(=O)CCN2c1ccc2c(ccn2C)c1	11 nM	78.6%	79.2%	54.3%	102 nM	102 nM	25 nM	72 nM	–
COc1ccc(N2CCC(=O)c3cc(OC)c(OC)cc32)cc1O	280 nM	44.2%	73.3%	20.4%	902 nM	3300 nM	226 nM	672 nM	–
COc1cc2c(c(OC)c1OC)C(=O)CCN2c1ccc2c(c1)OCCO2	216 nM	44.9%	72.4%	35.6%	237 nM	303 nM	81 nM	163 nM	–
COc1cc2c(c(OC)c1OC)C(=O)CCN2c1cccc2[nH]ccc12	–	31.2%	35.9%	11.6%	–	–	–	–	–
C[C@]12CC[C@H]3[C@@H](CCC4=CC(=O)CC[C@@]43C)[C@@H]1CC[C@@H]2O [TESTOSTERONE]	–	–	–	–	–	–	–	–	CLH [11]: 436 µL/min/mg
COc1cc2c(c(OC)c1OC)C(=O)CCN2Cc1ccc(F)cc1	–	16.3%	32.1%	12%	–	–	–	–	–
COc1ccc(N2CCC(=O)c3c2cc(OC)c(OC)c3OC)cc1O	34 nM	68.3%	68.4%	43.9%	96 nM	284 nM	30 nM	32 nM	–
COc1cc2c(c(OC)c1OC)C(=O)CCN2Cc1ccc(C(F)(F)F)cc1	–	22.1%	28.6%	6.29%	–	–	–	–	–
COc1cc(N2CCC(=O)c3c2cc(OC)c(OC)c3OC)cc(OC)c1OC	–	19.4%	28.4%	12.3%	–	–	–	–	–
COc1ccc(CN2CCC(=O)c3c2cc(OC)c(OC)c3OC)cc1O	–	13%	17.7%	13%	–	–	–	–	–
CC(=O)Oc1ccc(C(c2ccc(OC(C)=O)cc2)c2ccccn2)cc1 [BISACODYL]	–	–	–	–	–	–	–	–	remaining at 3 h, 1 µM [12]: 0.003%
COc1ccc(N2CCC(=O)c3c2cc(OC)c(OC)c3OC)cc1	72 nM	69.3%	74.5%	34%	107 nM	370 nM	34 nM	77 nM	–
COc1cc2c(c(OC)c1OC)C(=O)CCN2c1ccc(C)cc1	–	41.7%	64.1%	21%	–	–	–	–	–
COc1ccc(/C=C\c2cc(OC)c(OC)c(OC)c2)cc1O [COMBRETASTATIN A4]	11 nM	76.2%	78.4%	76.9%	20 nM	91 nM	4 nM	33 nM	half-life at 1 µM [13]: > 3 h; half-life at 100 µM [14]: < 5 min; solubility [15]: 0.96 µg/mL (≈ 3.03 µM); IC50 [3]: 76 nM; CLH [11]: > 277 µL/min/mg; inhibition in vivo at 20 mg/kg [16]: 59.2%; remaining at 3 h, 1 µM [12]: 97.8%
